Data published in ChEMBL document CHEMBL1138886, “Dissociated nonsteroidal glucocorticoid receptor modulators; discovery of the agonist trigger in a tetrahydronaphthalene-benzoxazine series” (J Med Chem, 2006).
Active and inactive are the calls of the source. The calls are words filed in the database; no cut-off is given here.

What was measured:
[1] = target: T1, Glucocorticoid receptor (Homo sapiens, UniProt P04150)
T1 sequence (P04150 whole entry): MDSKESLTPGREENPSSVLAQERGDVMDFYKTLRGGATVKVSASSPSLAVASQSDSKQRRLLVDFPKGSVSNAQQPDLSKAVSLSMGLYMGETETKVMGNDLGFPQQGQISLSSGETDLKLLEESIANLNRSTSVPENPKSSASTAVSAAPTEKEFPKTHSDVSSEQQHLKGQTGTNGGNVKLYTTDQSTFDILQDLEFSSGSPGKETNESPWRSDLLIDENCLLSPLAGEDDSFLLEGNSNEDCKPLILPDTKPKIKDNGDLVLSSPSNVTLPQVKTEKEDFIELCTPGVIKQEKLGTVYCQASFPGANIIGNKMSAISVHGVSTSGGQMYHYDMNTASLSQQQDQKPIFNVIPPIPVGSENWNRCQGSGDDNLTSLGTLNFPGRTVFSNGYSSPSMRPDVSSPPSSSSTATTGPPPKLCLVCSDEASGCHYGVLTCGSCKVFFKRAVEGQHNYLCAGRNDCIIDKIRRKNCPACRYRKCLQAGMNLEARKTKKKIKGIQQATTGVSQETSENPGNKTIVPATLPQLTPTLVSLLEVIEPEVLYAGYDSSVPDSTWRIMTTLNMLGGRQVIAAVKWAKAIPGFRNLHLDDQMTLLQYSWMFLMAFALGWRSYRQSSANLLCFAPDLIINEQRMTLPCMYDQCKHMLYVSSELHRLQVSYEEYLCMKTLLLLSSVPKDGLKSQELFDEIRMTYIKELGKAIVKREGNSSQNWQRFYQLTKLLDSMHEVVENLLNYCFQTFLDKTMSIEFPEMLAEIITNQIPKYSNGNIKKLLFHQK
Description: Agonist activity at GR assessed as NF-kappaB-mediated transrepression of secreted placental alkaline phosphatase gene in human A549 cells

[2] = target: T1, Glucocorticoid receptor; remark: listed apart in the source
[3] = target: T1, Glucocorticoid receptor; remark: listed apart in the source
[4] = target: T1, Glucocorticoid receptor; remark: listed apart in the source
[5] = target: T2, Glucocorticoid receptor (Homo sapiens) (UniProt P04150); test: Selectivity for MMTV transactivation assay over NF-kappaB transrepression assay for GR agonism in A549 cells; type: functional, cell-based
T2 sequence (whole entry): T1 sequence (P04150 whole entry)

[6] = organism: Homo sapiens; test: Selectivity for GR over AR by functional assay
[7] = test system: Mus musculus; test: Anti-inflammatory activity against oxazolone-induced ear skin delayed types hypersensitivity model in topically dosed BALB/c mouse; type: functional
[8] = organism: Homo sapiens; test: Selectivity for GR over AR by binding assay
[9] = target: Estrogen receptor (Homo sapiens) (UniProt Q92731+P03372); test: Activity at ER; type: protein assay
[10] = organism: Homo sapiens; test: Selectivity for GR in NF-kappaB transrepression assay over MR antagonism; type: functional
[11] = organism: Homo sapiens; test: Selectivity for GR over PR by binding assay
[12] = organism: Homo sapiens; test: Selectivity for GR over PR by functional assay

COc1cccc2c1CCCC2CC(O)(C(=O)Nc1ccc2c(=O)onc(C)c2c1)C(F)(F)F (centres undefined)
IC50 [1]: > 1000 nM | IC50 [2]: 12.6 nM

Cc1noc(=O)c2ccc(NC(=O)C(O)(CC3(C)CCCc4ccccc43)C(F)(F)F)cc12 (stereo in doubt; 35c)
IC50 [1]: > 10000 nM | IC50 [2]: 251 nM

Cc1noc(=O)c2ccc(NC(=O)C(O)(CC3CCCc4c(Br)cccc43)C(F)(F)F)cc12 (stereo in doubt; 23b)
IC50 [2]: 39.8 nM

Cc1noc(=O)c2ccc(NC(=O)C(O)(CC3CCCc4c(Br)cccc43)C(F)(F)F)cc12 (stereo in doubt; 23f)
IC50 [1]: > 1000 nM | IC50 [2]: 631 nM

Cc1noc(=O)c2ccc(NC(=O)C(O)(CC3CCCc4cc(F)ccc43)C(F)(F)F)cc12 (centres undefined)
IC50 [1]: > 1000 nM | IC50 [2]: 12.6 nM

Cc1noc(=O)c2ccc(NC(=O)C(O)(CC3(C(C)C)CCCc4ccccc43)C(F)(F)F)cc12 (centres undefined)
EC50 [3]: 18.6 nM | IC50 [1]: 2.95 nM | IC50 [4]: 129 nM | IC50 [2]: 4.79 nM | Efficacy [5]: 34%

Cc1noc(=O)c2ccc(NC(=O)C(O)(CC3CCCc4c(F)cccc43)C(F)(F)F)cc12 (centres undefined)
IC50 [1]: > 1000 nM | IC50 [4]: 501 nM | IC50 [2]: 15.8 nM

Cc1noc(=O)c2ccc(NC(=O)C(O)(CC3(C)CCCc4ccccc43)C(F)(F)F)cc12 (stereo in doubt; 35b)
IC50 [1]: 1260 nM | IC50 [2]: 7.94 nM

Cc1noc(=O)c2ccc(NC(=O)C(O)(CC3CCCc4c(N)cccc43)C(F)(F)F)cc12 (centres undefined)
IC50 [1]: > 1000 nM | IC50 [4]: 2000 nM | IC50 [2]: 25.1 nM

CCC1(CC(O)(C(=O)Nc2ccc3c(=O)onc(C)c3c2)C(F)(F)F)CCCCc2ccccc21 (centres undefined)
EC50 [3]: > 10000 nM | IC50 [1]: 7.94 nM | IC50 [2]: 10 nM

Cc1noc(=O)c2ccc(NC(=O)C(O)(CC3CCCc4ccc([N+](=O)[O-])cc43)C(F)(F)F)cc12 (centres undefined)
IC50 [1]: > 1000 nM | IC50 [2]: 20 nM

Cc1noc(=O)c2ccc(NC(=O)C(O)(CC3(C)CCCc4ccccc43)C(F)(F)F)cc12 (stereo in doubt; 35d)
EC50 [3]: > 10000 nM | IC50 [1]: 20 nM | IC50 [4]: 398 nM | IC50 [2]: 10 nM

Cc1noc(=O)c2ccc(NC(=O)C(O)(CC3CCCc4cccc(F)c43)C(F)(F)F)cc12 (centres undefined)
IC50 [1]: > 1000 nM | IC50 [2]: 31.6 nM

Cc1noc(=O)c2ccc(NC(=O)C(O)(CC3CCCc4c(Br)cccc43)C(F)(F)F)cc12 (stereo in doubt; 23c)
IC50 [2]: 6.31 nM

CCCCC1(CC(O)(C(=O)Nc2ccc3c(=O)onc(C)c3c2)C(F)(F)F)CCCc2ccccc21 (centres undefined)
EC50 [3]: > 1000 nM | IC50 [1]: 6.61 nM | IC50 [2]: 3.09 nM

Cc1noc(=O)c2ccc(NC(=O)C(O)(CC3(C4CCC4)CCCc4ccccc43)C(F)(F)F)cc12 (centres undefined)
EC50 [3]: 17.4 nM | IC50 [1]: 4.9 nM | IC50 [4]: 166 nM | IC50 [2]: 9.55 nM

Cc1noc(=O)c2ccc(NC(=O)C(O)(CC3(C4CCCCC4)CCCc4ccccc43)C(F)(F)F)cc12 (centres undefined)
EC50 [3]: 20.9 nM | IC50 [1]: 3.31 nM | IC50 [4]: 200 nM | IC50 [2]: 8.51 nM

Cc1noc(=O)c2ccc(NC(=O)C(O)(CC3(C4CC4)CCCc4ccccc43)C(F)(F)F)cc12 (centres undefined)
EC50 [3]: 39.8 nM | IC50 [1]: 9.55 nM | IC50 [4]: 204 nM | IC50 [2]: 4.68 nM

Cc1noc(=O)c2ccc(NC(=O)C(O)(CC3CCCc4c(Cl)cccc43)C(F)(F)F)cc12 (stereo in doubt; 20b)
IC50 [1]: > 1000 nM | IC50 [4]: 398 nM | IC50 [2]: 5.01 nM

Cc1noc(=O)c2ccc(NC(=O)C(O)(CC3CCCc4ccc(F)cc43)C(F)(F)F)cc12 (centres undefined)
IC50 [1]: > 1000 nM | IC50 [2]: 15.8 nM

Cc1noc(=O)c2ccc(NC(=O)C(O)(CC3(C(C)(C)C)CCCc4ccccc43)C(F)(F)F)cc12 (centres undefined)
IC50 [1]: > 10000 nM | IC50 [4]: 776 nM | IC50 [2]: 11.5 nM

Cc1noc(=O)c2ccc(NC(=O)C(O)(CC3CCCc4c(Br)cccc43)C(F)(F)F)cc12 (stereo in doubt; 23a)
IC50 [4]: 794 nM | IC50 [2]: 15.8 nM

Cc1noc(=O)c2ccc(NC(=O)C(O)(CC3(C)CCCc4ccccc43)C(F)(F)F)cc12 (stereo in doubt; 35a)
IC50 [1]: > 10000 nM | IC50 [2]: 316 nM

CCC1(CC(O)(C(=O)Nc2ccc3c(=O)onc(C)c3c2)C(F)(F)F)CCCc2c([N+](=O)[O-])cccc21 (centres undefined)
IC50 [1]: > 10000 nM | IC50 [4]: 251 nM | IC50 [2]: 5.01 nM

CCC1(CC(O)(C(=O)Nc2ccc3c(=O)onc(C)c3c2)C(F)(F)F)CCOc2ccccc21 (stereo in doubt; 37)
IC50 [2]: 16.6 nM

Cc1noc(=O)c2ccc(NC(=O)C(O)(CC3CCCc4c(C#N)cccc43)C(F)(F)F)cc12 (centres undefined)
IC50 [1]: > 1000 nM | IC50 [2]: 15.8 nM

CCC1(CC(O)(C(=O)Nc2ccc3c(=O)onc(C)c3c2)C(F)(F)F)CCOc2ccccc21 (stereo in doubt; 38)
IC50 [1]: > 10000 nM | IC50 [2]: 11.7 nM

Cc1noc(=O)c2ccc(NC(=O)C(O)(CC3(c4ccccc4)CCCc4ccccc43)C(F)(F)F)cc12 (centres undefined)
IC50 [1]: > 10000 nM | IC50 [4]: 1380 nM | IC50 [2]: 14.5 nM

Cc1noc(=O)c2ccc(NC(=O)[C@](O)(C[C@@]3(C4CCCC4)CCCc4ccccc43)C(F)(F)F)cc12
Selectivity ratio [6]: > 50 | ED50 [7]: 0.05 µg | EC50 [3]: 17.8 nM | IC50 [1]: 2.04 nM | Selectivity ratio [8]: > 50 | IC50 [4]: 53.7 nM | IC50 [2]: 8.13 nM | Activity [9]: inactive | Selectivity ratio [10]: > 100

Cc1noc(=O)c2ccc(NC(=O)C(O)(CC3(CC(C)C)CCCc4ccccc43)C(F)(F)F)cc12 (centres undefined)
EC50 [3]: > 1000 nM

CCC1(CC(O)(C(=O)Nc2ccc3c(=O)onc(C)c3c2)C(F)(F)F)CCCc2ccccc21 (centres undefined)
ED50 [7]: 5 µg | EC50 [3]: 9.12 nM | IC50 [1]: 5.01 nM | IC50 [4]: 200 nM | IC50 [2]: 6.17 nM

Cc1cccc2c1CCCC2CC(O)(C(=O)Nc1ccc2c(=O)onc(C)c2c1)C(F)(F)F (stereo in doubt; 19b)
IC50 [1]: > 1000 nM | IC50 [4]: 200 nM | IC50 [2]: 3.16 nM

CCCC1(CC(O)(C(=O)Nc2ccc3c(=O)onc(C)c3c2)C(F)(F)F)CCCc2ccccc21 (centres undefined)
EC50 [3]: 20 nM | IC50 [1]: 4.68 nM | IC50 [4]: 25.1 nM | IC50 [2]: 5.62 nM | Efficacy [5]: 67%

CCC(CC)C1(CC(O)(C(=O)Nc2ccc3c(=O)onc(C)c3c2)C(F)(F)F)CCCc2ccccc21 (centres undefined)
Selectivity ratio [6]: > 50 | ED50 [7]: 0.35 µg | Selectivity ratio [11]: 10 | EC50 [3]: 6.31 nM | IC50 [1]: 1.2 nM | Selectivity ratio [8]: > 50 | IC50 [4]: 66.1 nM | IC50 [2]: 5.25 nM | Efficacy [5]: 50% | Activity [9]: inactive | Selectivity ratio [12]: 10 | Selectivity ratio [10]: > 100

Cc1noc(=O)c2ccc(NC(=O)C(O)(CC3CCCc4ccccc43)C(F)(F)F)cc12 (centres undefined)
IC50 [1]: > 1000 nM | IC50 [2]: 7.94 nM

Cc1noc(=O)c2ccc(NC(=O)C(O)(CC3CCCc4c(Cl)cccc43)C(F)(F)F)cc12 (stereo in doubt; 20a)
IC50 [2]: 15.8 nM

Cc1cccc2c1CCCC2CC(O)(C(=O)Nc1ccc2c(=O)onc(C)c2c1)C(F)(F)F (stereo in doubt; 19a)
IC50 [4]: 794 nM | IC50 [2]: 20 nM

CCC1(CC(O)(C(=O)Nc2ccc3c(=O)onc(C)c3c2)C(F)(F)F)CCCc2cc([N+](=O)[O-])ccc21 (centres undefined)
IC50 [1]: > 10000 nM | IC50 [4]: 794 nM | IC50 [2]: 7.94 nM

Cc1noc(=O)c2ccc(NC(=O)C(O)(CC3CCCc4c(Br)cccc43)C(F)(F)F)cc12 (stereo in doubt; 23e)
IC50 [2]: 25.1 nM

Cc1noc(=O)c2ccc(NC(=O)C(O)(CC3CCCc4c3cccc4[N+](=O)[O-])C(F)(F)F)cc12 (centres undefined)
IC50 [1]: > 1000 nM | IC50 [2]: 12.6 nM

CCC1(CC(O)(C(=O)Nc2ccc3c(=O)onc(C)c3c2)C(F)(F)F)CCCc2ccc([N+](=O)[O-])cc21 (centres undefined)
IC50 [1]: > 10000 nM | IC50 [4]: 316 nM | IC50 [2]: 6.31 nM

C[C@@H]1C[C@H]2[C@@H]3CCC4=CC(=O)C=C[C@]4(C)[C@@]3(F)[C@@H](O)C[C@]2(C)[C@@]1(O)C(=O)CO [DEXAMETHASONE]
ED50 [7]: 0.27 µg

Cc1noc(=O)c2ccc(NC(=O)C(O)(CC3CCCc4cc([N+](=O)[O-])ccc43)C(F)(F)F)cc12 (centres undefined)
IC50 [1]: > 1000 nM | IC50 [2]: 126 nM
